Assays:
[1] = tested on: MPTP-lesioned macaques; experiment: On-time (time without bradykinesia) in MPTP-lesioned macaques after L-DOPA challenge; assay type: in vivo, Macaca fascicularis; conditions: for Minutes spent in on time (mean ± s.e. mean): 6 h observation; for Minutes spent in on time (mean ± s.e. mean) / Percent on-time normalised to 0 mg/kg L-DOPA (mean ± s.e. mean): smilagenin 20 mg/kg/day p.o. 18 weeks, then 10 week washout
Experimental: Analysis was performed using a two-way ANOVA with group and L-DOPA dose as factors.

[2] = tested on: MPTP-lesioned macaques; experiment: L-DOPA induced dyskinesia (LID) in MPTP-lesioned macaques, monkey dyskinesia rating scale; assay type: in vivo, Macaca fascicularis; conditions: for % reduction in LID compared to corresponding vehicle group / Number of LID events in each stated time period (hours) post challenge 0-1 / Number of LID events in each stated time period (hours) post challenge 1-2 / Number of LID events in each stated time period (hours) post challenge 2-3 / Number of LID events in each stated time period (hours) post challenge 3-4 / Number of LID events in each stated time period (hours) post challenge 4-5 / Number of LID events in each stated time period (hours) post challenge 5-6 / Number of LID events post challenge Total: smilagenin 20 mg/kg/day p.o. 18 weeks, then 10 week washout; for Number of LID events in each stated time period (hours) post challenge 0-1: 0-1 h; for Number of LID events in each stated time period (hours) post challenge 1-2: 1-2 h; for Number of LID events in each stated time period (hours) post challenge 2-3: 2-3 h; for Number of LID events in each stated time period (hours) post challenge 3-4: 3-4 h; for Number of LID events in each stated time period (hours) post challenge 4-5: 4-5 h; for Number of LID events in each stated time period (hours) post challenge 5-6: 5-6 h; for Number of LID events post challenge Total: total 0-6 h
Experimental: Ten female cynomolgus monkeys (macaques) (Macaca fascicularis, 3.0-4.5 kg, 4-6 years old) were acclimatised to the experimental setting and procedures for 3 months and baseline behaviour was assessed in all animals. The macaques received MPTP (0.2 mg/kg/day, s.c.) until moderate-marked, stable, parkinsonian symptoms developed.
Following stabilisation of parkinsonian disability, the macaques were administered L-DOPA (Madopar, 20 mg/kg b.i.d., p.o.) for 19 weeks before being administered L-DOPA+vehicle (hydroxypropylmethylcellulose, HPMC, 0.5% w/v containing Tween 80, 0.2% v/v, group 1, n=5) or L-DOPA+smilagenin (20 mg/kg/day, p.o., group 2, n=5) for a further 18 weeks. Smilagenin was then washed out for 10 weeks and all the macaques received only L-DOPA twice daily over this 10 week period.
Following the 10 week washout, the macaques were challenged with L-DOPA (6, 12, 20, 30 or 40 mg/kg, p.o.) or vehicle and the level of dyskinesia over the subsequent 6 h period was assessed by a neurologist blinded to treatment using a monkey dyskinesia rating scale. […] Each macaque received a challenge once every 3 days and received every challenge (vehicle and L-DOPA, 6, 12, 20, 30 or 40 mg/kg) in a randomised order over the course of the experiment. On the days between challenges, the macaques received L-DOPA (20 mg/kg, b.i.d., p.o.) as normal.
The MPTP-lesioned and L-DOPA treated macaques used in this experiment provide an accepted model for L-DOPA-induced dyskinesia.

[3] = Total across all L-DOPA challenge doses (0-40 mg/kg)

`C[C@@H]1CC[C@@]2(OC1)O[C@H]1C[C@H]3[C@@H]4CC[C@@H]5C[C@@H](O)CC[C@]5(C)[C@H]4CC[C@]3(C)[C@H]1[C@@H]2C` [Smilagenin, smilagenin] was tested, and the “Minutes spent in on time (mean ± s.e. mean)” value (shortened to “Minutes spent in on time”) ([1]; L-DOPA dose 0 mg/kg) was 114 ± 43 min, the “Percent on-time normalised to 0 mg/kg L-DOPA (mean ± s.e. mean)” value (“Percent on-time normalised” below) ([1]; L-DOPA dose 0 mg/kg) was 100% and the “Minutes spent in on time” value ([1]; L-DOPA dose 6 mg/kg) was 134 ± 43 min. The “Percent on-time normalised” value ([1]; L-DOPA dose 6 mg/kg) was 118 ± 32%, the “Minutes spent in on time” value ([1]; L-DOPA dose 12 mg/kg) was 126 ± 35 min and the “Percent on-time normalised” value ([1]; L-DOPA dose 12 mg/kg) was 111 ± 28%. The “Minutes spent in on time” value ([1]; L-DOPA dose 20 mg/kg) was 178 ± 29 min, the “Percent on-time normalised” value ([1]; L-DOPA dose 20 mg/kg) was 156 ± 16% and the “Minutes spent in on time” value ([1]; L-DOPA dose 30 mg/kg) was 224 ± 13 min. The “Percent on-time normalised” value ([1]; L-DOPA dose 30 mg/kg) was 196 ± 6%, the “Minutes spent in on time” value ([1]; L-DOPA dose 40 mg/kg) was 230 ± 24 min and the “Percent on-time normalised” value ([1]; L-DOPA dose 40 mg/kg) was 202 ± 10%. For the same compound, the “Total on-time, smilagenin group versus vehicle group” value ([1]; two-way ANOVA with group and L-DOPA dose as factors, p>0.05) was “not significantly different”, the “% reduction in LID compared to corresponding vehicle group” value (from here on “% reduction in LID”) ([2]; Across all doses of L-DOPA) was 53% and the “Number of LID events in each stated time period (hours) post challenge 0-1” value (shortened to “Number … (hours) post challenge 0-1”) ([2]; L-DOPA challenge 0 mg/kg) was 0. For the same compound, the “Number of LID events in each stated time period (hours) post challenge 1-2” value (shortened to “Number … (hours) post challenge 1-2”) ([2]; L-DOPA challenge 0 mg/kg) was 0, the “Number of LID events in each stated time period (hours) post challenge 2-3” value (shortened to “Number … (hours) post challenge 2-3”) ([2]; L-DOPA challenge 0 mg/kg) was 0 and the “Number of LID events in each stated time period (hours) post challenge 3-4” value (shortened to “Number … (hours) post challenge 3-4”) ([2]; L-DOPA challenge 0 mg/kg) was 0. The “Number of LID events in each stated time period (hours) post challenge 4-5” value (shortened to “Number … (hours) post challenge 4-5”) ([2]; L-DOPA challenge 0 mg/kg) was 0, the “Number of LID events in each stated time period (hours) post challenge 5-6” value (shortened to “Number … (hours) post challenge 5-6”) ([2]; L-DOPA challenge 0 mg/kg) was 0 and the “% reduction in LID” value ([2]; L-DOPA challenge 0 mg/kg) was 0%. The “Number of LID events post challenge Total” value ([2]; L-DOPA challenge 0 mg/kg) was 0, the “Number … (hours) post challenge 0-1” value ([2]; L-DOPA challenge 6 mg/kg p.o.) was 0 and the “Number … (hours) post challenge 1-2” value ([2]; L-DOPA challenge 6 mg/kg p.o.) was 0. The “Number … (hours) post challenge 2-3” value ([2]; L-DOPA challenge 6 mg/kg p.o.) was 0, the “Number … (hours) post challenge 3-4” value ([2]; L-DOPA challenge 6 mg/kg p.o.) was 0 and the “Number … (hours) post challenge 4-5” value ([2]; L-DOPA challenge 6 mg/kg p.o.) was 0. For the same compound, the “Number … (hours) post challenge 5-6” value ([2]; L-DOPA challenge 6 mg/kg p.o.) was 0, the “% reduction in LID” value ([2]; L-DOPA challenge 6 mg/kg p.o.) was 0% and the “Number of LID events post challenge Total” value ([2]; L-DOPA challenge 6 mg/kg p.o.) was 0. The “Number … (hours) post challenge 0-1” value ([2]; L-DOPA challenge 12 mg/kg p.o.) was 0, the “Number … (hours) post challenge 1-2” value ([2]; L-DOPA challenge 12 mg/kg p.o.) was 0 and the “Number … (hours) post challenge 2-3” value ([2]; L-DOPA challenge 12 mg/kg p.o.) was 0. The “Number … (hours) post challenge 3-4” value ([2]; L-DOPA challenge 12 mg/kg p.o.) was 0, the “Number … (hours) post challenge 4-5” value ([2]; L-DOPA challenge 12 mg/kg p.o.) was 0 and the “Number … (hours) post challenge 5-6” value ([2]; L-DOPA challenge 12 mg/kg p.o.) was 0. The “% reduction in LID” value ([2]; L-DOPA challenge 12 mg/kg p.o.) was 100%, the “Number of LID events post challenge Total” value ([2]; L-DOPA challenge 12 mg/kg p.o.) was 0 and the “Number … (hours) post challenge 0-1” value ([2]; L-DOPA challenge 20 mg/kg p.o.) was 8. The “Number … (hours) post challenge 1-2” value ([2]; L-DOPA challenge 20 mg/kg p.o.) was 29, the “Number … (hours) post challenge 2-3” value ([2]; L-DOPA challenge 20 mg/kg p.o.) was 6 and the “Number … (hours) post challenge 3-4” value ([2]; L-DOPA challenge 20 mg/kg p.o.) was 0. For the same compound, the “Number … (hours) post challenge 4-5” value ([2]; L-DOPA challenge 20 mg/kg p.o.) was 0, the “Number … (hours) post challenge 5-6” value ([2]; L-DOPA challenge 20 mg/kg p.o.) was 0 and the “% reduction in LID” value ([2]; L-DOPA challenge 20 mg/kg p.o.) was 52%. For the same compound, the “Number of LID events post challenge Total” value ([2]; L-DOPA challenge 20 mg/kg p.o.) was 43, the “Number … (hours) post challenge 0-1” value ([2]; L-DOPA challenge 30 mg/kg p.o.) was 3 and the “Number … (hours) post challenge 1-2” value ([2]; L-DOPA challenge 30 mg/kg p.o.) was 29. The “Number … (hours) post challenge 2-3” value ([2]; L-DOPA challenge 30 mg/kg p.o.) was 11, the “Number … (hours) post challenge 3-4” value ([2]; L-DOPA challenge 30 mg/kg p.o.) was 0 and the “Number … (hours) post challenge 4-5” value ([2]; L-DOPA challenge 30 mg/kg p.o.) was 0. For the same compound, the “Number … (hours) post challenge 5-6” value ([2]; L-DOPA challenge 30 mg/kg p.o.) was 0, the “% reduction in LID” value ([2]; L-DOPA challenge 30 mg/kg p.o.) was 76% and the “Number of LID events post challenge Total” value ([2]; L-DOPA challenge 30 mg/kg p.o.) was 43. The “Number … (hours) post challenge 0-1” value ([2]; L-DOPA challenge 40 mg/kg p.o.) was 8, the “Number … (hours) post challenge 1-2” value ([2]; L-DOPA challenge 40 mg/kg p.o.) was 56 and the “Number … (hours) post challenge 2-3” value ([2]; L-DOPA challenge 40 mg/kg p.o.) was 48. For the same compound, the “Number … (hours) post challenge 3-4” value ([2]; L-DOPA challenge 40 mg/kg p.o.) was 14, the “Number … (hours) post challenge 4-5” value ([2]; L-DOPA challenge 40 mg/kg p.o.) was 0 and the “Number … (hours) post challenge 5-6” value ([2]; L-DOPA challenge 40 mg/kg p.o.) was 0. The “% reduction in LID” value ([2]; L-DOPA challenge 40 mg/kg p.o.) was 27%, the “Number of LID events post challenge Total” value ([2]; L-DOPA challenge 40 mg/kg p.o.) was 126 and the “Number … (hours) post challenge 0-1” value [2, 3] was 19. The “Number … (hours) post challenge 1-2” value [2, 3] was 114, the “Number … (hours) post challenge 2-3” value [2, 3] was 65 and the “Number … (hours) post challenge 3-4” value [2, 3] was 14. The “Number … (hours) post challenge 4-5” value [2, 3] was 0, the “Number … (hours) post challenge 5-6” value [2, 3] was 0 and the “Number of LID events post challenge Total” value [2, 3] was 212. For the same compound, the “Dyskinesia following challenge with L-DOPA” value ([2]; group 2 (L-DOPA+smilagenin), challenge with L-DOPA 6 or 12 mg/kg, 6 h) was “no dyskinesia was observed” and the “Dyskinesia following challenge with L-DOPA, compared to group 1 (vehicle)” value ([2]; group 2 (L-DOPA+smilagenin), challenge with L-DOPA at 20, 30 or 40 mg/kg) was “less dyskinesia compared to group 1”.
